Data taken from patent US20040116293A1, “Enhanced herbicide composition” (priority 2002, published 2004).

Legend:
[1] = system: Xanthi-nc tobacco; assay: Potentiation rating of Aatrex Nine-O (atrazine) herbicidal activity on Xanthi-nc tobacco relative to equimolar salicylic acid; assay type: in vivo, Nicotiana tabacum (tobacco); set-up: Potentiation Rating: key: 0 = no potentiation; 1 = potentiation less than equimolar SA; 2 = potentiation statistically equal to equimolar SA; 3 = potentiation statistically greater than equimolar SA; conditions: for Potentiation of the herbicidal activity of atrazine compared with salicylic acid (in words): tobacco
Description: (§1) In all examples, deionized ultra-pure water was used in preparing solutions. Spray solutions were used as soon as possible after mixing.
(§2) In all herbicide applications, plants were sprayed with a sufficient volume to insure good coverage, to the point of runoff of the spray solution. […] For all treatments containing both an herbicide and a salicylate or SAR inducer, these materials were mixed and applied in a single spray solution (commonly known as a tank mix). After spraying, plants were moved to the greenhouse and arranged in randomized complete blocks. Plants were evaluated for herbicidal effects (phytotoxicity) after spraying by assessing damage according to percent leaf area affected. All the data were subject to an analysis of variance, and the mean separations were determined with Duncan's multiple range test at α=0.05.

[2] = system: Xanthi-nc tobacco; assay: Herbicidal activity (phytotoxicity, percent leaf area affected) of foliar sprays on Xanthi-nc tobacco; assay type: in vivo, Nicotiana tabacum (tobacco); conditions: for Phytotoxicity at 4 days: percent leaf area affected: alone or + NaSA 800 ppm
Description: as §1, §2

[3] = salicylates, picolinates and benzoates at 2 mM with Aatrex Nine-O (atrazine)
[4] = salicylic acid or SAR inducers with Aatrex Nine-O (atrazine), compared with equimolar SA
[5] = acibenzolar-S-methyl 935 ppm, alone or + atrazine (Aatrex Nine-O) 100 ppm
[6] = atrazine (Aatrex Nine-O) 100 ppm, NaSA 800 ppm, acibenzolar-S-methyl 187 ppm, alone or tank-mixed as labelled

SMILES	Potentiation Rating [1, 3]	Potentiation of the herbicidal activity of atrazine compared with salicylic acid (in words) [1]	other results
O=C(O)c1cc([N+](=O)[O-])ccc1O [5-Nitrosalicylic acid]	2	as active as salicylic acid	
CCOC(=O)C(C)OC(=O)c1cc(Oc2ccc(C(F)(F)F)cc2Cl)ccc1[N+](=O)[O-] (centres unmarked) [lactofen]		greater potentiation than equimolar salicylic acid	
Cc1ccc(O)c(C(=O)O)c1 [5-Methylsalicylic acid]	0		
O=C(O)c1cc(Cl)nc(Cl)c1 [2,6-Dichloroisonicotinic acid]		greater potentiation than equimolar salicylic acid	Potentiation Rating [1, 4]: 3
Cc1cccc(C(=O)O)c1O [3-Methylsalicylic acid]	0	no potentiation	
O=C(O)c1cc(Cl)ccc1O [5-Chlorosalicylic acid]		greater potentiation than equimolar salicylic acid	Potentiation Rating [1, 4]: 3
O=C(O)c1cccc(Cl)c1O [3-Chlorosalicylic acid]	3	greater potentiation than salicylic acid	
O=C(O)c1cc(Br)ccc1O [5-Bromosalicylic acid]	2	as active as salicylic acid	
COc1cccc(C(=O)O)c1O [3-Methoxysalicylic acid]	2	as active as salicylic acid	
O=C(O)c1cccc([N+](=O)[O-])c1O [3-Nitrosalicylic acid]	2	as active as salicylic acid	
O=C(O)c1ccc(Cl)cc1O [4-Chlorosalicylic acid]		greater potentiation than equimolar salicylic acid	Potentiation Rating [1, 4]: 3
O=C([O-])c1ccccc1.[Na+] [Sodium benzoate]	0	no potentiation	
C=CCOC1=NS(=O)(=O)c2ccccc21 [Probenazole]		greater potentiation than equimolar salicylic acid	
O=C(O)c1c(O)cccc1F [6-Fluorosalicylic acid]	2	as active as salicylic acid	
O=C(O)c1ncccc1O [3-Hydroxypicolinic acid]	3		
O=C(O)c1ccccc1O [Salicylic acid, salicylic acid]	2		Potentiation Rating [1, 4]: 2
O=C(O)c1cccc(F)c1O [3-Fluorosalicylic acid]	3	greater potentiation than salicylic acid	
CC(C)N1C(=O)c2ccccc2NS1(=O)=O [Bentazon, 3-(1-methylethyl)-1H-2,1,3-benzothiadiazin-4(3H)-one 2,2-dioxide]			Phytotoxicity at 4 days: percent leaf area affected ([2]; bentazon (Basagran) 100 ppm): 10 A percent; Phytotoxicity at 4 days: percent leaf area affected ([2]; bentazon (Basagran) 250 ppm): 32.5 B percent; Phytotoxicity at 4 days: percent leaf area affected ([2]; bentazon (Basagran) 500 ppm): 72.5 CD percent
O=C(O)c1ccc(F)cc1O [4-Fluorosalicylic acid]	3	greater potentiation than salicylic acid	
Cc1cccc(O)c1C(=O)O [6-Methylsalicylic acid]	0	no potentiation	
Cc1ccc(C(=O)O)c(O)c1 [4-Methylsalicylic acid]	0	no potentiation	
O=C(O)c1cc(F)ccc1O [5-Fluorosalicylic acid]	3	greater potentiation than salicylic acid	
O=C(O)c1cc(Br)cc(Br)c1O [3,5-Dibromosalicylic acid]	2	as active as salicylic acid	
O=C(O)c1cc(F)cc(F)c1O [3,5-Difluorosalicylic acid]	3	greater potentiation than salicylic acid	
O=C(O)c1cc(Cl)cc(Cl)c1O [3,5-Dichlorosalicylic acid]		greater potentiation than equimolar salicylic acid	Potentiation Rating [1, 4]: 3
CSC(=O)c1cccc2nnsc12 [Acibenzolar-S-methyl, 1,2,3-benzothiadiazole-7-carbothioic acid S-methyl ester]		greater potentiation than equimolar salicylic acid	Potentiation Rating [1, 4]: 3; Phytotoxicity at 2 days: percent leaf area affected [2, 5]: 0 A percent; Phytotoxicity at 2 days: percent leaf area affected [2, 6]: 0 A percent; Phytotoxicity at 3 days: percent leaf area affected [2, 5]: 0 A percent; Phytotoxicity at 3 days: percent leaf area affected [2, 6]: 0 A percent; Phytotoxicity at 7 days: percent leaf area affected [2, 5]: 0.6 A percent; Phytotoxicity at 7 days: percent leaf area affected [2, 6]: 0 A percent; Effect of Actigard on atrazine activity (in words) ([2]; tobacco): dose-dependent acceleration of atrazine activity
